Experimental data reported in patent publication US20070004636A1, “Method of degrading transcriptional factors of saccharometabolism-associated gene, method for inhibiting the degradation, and agent for inhibiting degradation and degradation inhibitor” (priority 2002, published 2007).

Tests used:
Type in all cases: cell-based
[1] = tested on: human HNF-1α; test: intracellular HNF-1α degradation test by adding calcium ionophore, HEK293T cells; settings: 10 μg/mL, 4 hours
Description: After culturing a total number of 0.8×10^6 HEK293T cells for 5 hours at 37° C. under the presence of 5% CO2 (Petri dish with 60 mm diameter), 2 μg of an HNF-1α expression plasmid (see Example 7) was transfected thereto using the FuGENE 6 Transfection Reagent. After two days of culturing, the culture medium was replaced with a medium containing 10 μg/mL of ionophore A23187 (Sigma Chemical Co.) and 0.2% DMSO, and then the culturing was continued for 4 hours. For a negative control group, the culture medium was replaced with a medium containing 0.2% DMSO. After culturing for the pre-determined time, the cells were washed with cold PBS (−), suspended in 350 μl of hypotonic cell lysis buffer, and then left to stand on ice for 20 mins. The cells were disrupted with a homogenizer, and then centrifuged at 4° C. for 10 minutes at 600 g to collect the resulting supernatant as a cytoplasmic fraction and the precipitation as a nuclear fraction. The nuclear fraction was further suspended in solution comprising 2×PBS/1% Nonidet P-40/0.1% SDS, and disrupted by ultrasonication. The protein concentration of cell fractions was determined with Coomassie Plus Protein Assay Reagent Kit (Pierce Chemical Corp.). Each of the prepared samples was added to an equal volume of 2×SDS sample buffer, heated for 5 minutes, and then subjected to 5-20% SDS-PAGE for separation. […]

[2] = tested on: human IPF-1; test: intracellular IPF-1 degradation test by adding calcium ionophore, HEK293T cells; settings: 10 μg/mL, 4 hours
Description: After culturing a total number of 0.5×10^6 HEK293T cells for 24 hours at 37° C. under the presence of 5% CO2 (Petri dish with 60 mm diameter), 2 μg of IPF-1 expression plasmid (see Example 10) was transfected thereto using the FuGENE 6 Transfection Reagent. After two days of culturing, the culture medium was replaced with a medium containing 10 μg/mL of ionophore A23187 (Sigma Chemical Co.), and the culturing was continued for further 4 hours. For a negative control group, the culture medium was replaced with a medium containing 0.2% DMSO. After culturing for the pre-determined time, the cells were washed with cold PBS (−), suspended in 350 μl of hypotonic cell lysis buffer, and then left to stand on ice for 20 mins. The cells were disrupted with a homogenizer, and then centrifuged at 4° C. for 10 minutes at 600 g to collect the supernatant as a cytoplasmic fraction and the precipitation as a nuclear fraction. The nuclear fraction was further suspended in solution comprising 2×PBS/1% Nonidet P40/0.1% SDS, and disrupted by ultrasonication. The nuclear fraction and cell fraction were added to an equal volume of 2×SDS sample buffer, heated for 5 minutes, and then subjected to 5-20% SDS-PAGE for separation. Detection of IPF-1 was conducted by the same method as in Example 10.

[3] = tested on: human HNF-4α; test: intracellular HNF-4α degradation test by adding calcium ionophore, HEK293T cells; settings: 10 μg/mL, 3 hours, nuclear and cytoplasmic fraction
Description: After culturing a total number of 0.7×10^6 HEK293T cells for 22 hours at 37° C. under the presence of 5% CO2 (Petri dish with 60 mm diameter), 2 μg of HNF-4α expression plasmid (see Example 2) was transfected thereto using the FuGENE 6 Transfection Reagent. After two days of culturing, the culture medium was replaced with a medium that contained 10 μg/mL of ionophore A23187 (4-bromo-calcium ionophore A23187, Sigma Chemical Co.), and the culturing was continued for 3 hours. For a negative control group, the culture medium was replaced with a medium to which dimethylsulfoxide (DMSO) was added instead of the ionophore. After culturing for the pre-determined time, the cells were washed with cold PBS (−), suspended in 300 μl of hypotonic cell lysis buffer (10 mM HEPES, pH 7.5/10 mM MgCl2/42 mM KCl/1 mM PMSF), and left to stand on ice for 20 mins. The cells were disrupted with a homogenizer, and then centrifuged at 4° C. for 10 minutes at 600 g, to collect the resulting supernatant as a cytoplasmic fraction and the precipitation as a nuclear fraction. The nuclear fraction was further suspended in solution comprising 2×PBS/1% Nonidet P-40/0.1% SDS, and disrupted by ultrasonication. An equal volume of 2×SDS sample buffer was added thereto, heated for 5 minutes, and then subjected to 5-20% SDS-PAGE for separation. Detection of HNF-4α was conducted by the same method as in Example 4.

4-bromo-calcium ionophore A23187
observed: degradation of HNF-1α by addition of ionophore [1] | degradation of IPF-1 by addition of ionophore [2] | degradation of HNF-4α by adding ionophore [3]
